# Measurements published in patent publication US10688128B2, “Use of Z-butylidenephthalide in activating autoimmune system” (EVERFRONT BIOTECH INC., priority 2016, dated 2020).
# Assays:
# PDL-1 protein [1] = assay: Expression of PDL-1 protein by Western Blotting, Paca2 cell line; format: cell-based; conditions: Paca2 cell line (human pancreatic cancer cells), various concentrations of Z-BP, 24 hours, actin internal control
# Method: (§1) The RG2 cell line (rat malignant glioma cells), […] cell line (glioblastoma stem cells), Paca2 cell line (human pancreatic cancer cells), […] cell line (human non-small-cell lung cancer cells), or B16 cell line (mouse melanocytoma cells) were independently treated with various concentrations of Z-BP for 24 hours. Then, the proteins in the cells were extracted and the expressions of PDL-1 protein in the cancer cells treated with Z-BP were detected by Western Blotting. In addition, the expression of actin was detected and used as the internal control.
# PDL-1 protein [2] = assay: Expression of PDL-1 protein by Western Blotting, 1×M cell line; format: cell-based; conditions: 1×M cell line (glioblastoma stem cells), various concentrations of Z-BP, 24 hours, actin internal control
# Method: as §1
# PDL-1 protein [3] = assay: Expression of PDL-1 protein by Western Blotting, RG2 cell line; format: cell-based; conditions: RG2 cell line (rat malignant glioma cells), various concentrations of Z-BP, 24 hours, actin internal control
# Method: as §1
# PDL-1 protein [4] = assay: Expression of PDL-1 protein by Western Blotting, B16 cell line; format: cell-based; conditions: B16 cell line (mouse melanocytoma cells), various concentrations of Z-BP, 24 hours, actin internal control
# Method: as §1
# PDL-1 protein [5] = assay: Expression of PDL-1 protein by Western Blotting, H1650 cell line; format: cell-based; conditions: H1650 cell line (human non-small-cell lung cancer cells), various concentrations of Z-BP, 24 hours, actin internal control
# Method: as §1
# [6] = test system: stage three or four melanoma; conditions: patients with stage three or four melanoma, Ipilimumab alone; cited from earlier work
compound,measurement,setting,value
"CCC/C=C1\OC(=O)c2ccccc21 [Z-BP, Z-butylidenephthalide]",expression of PDL-1 protein,PDL-1 protein [1],significantly decreased
same,expression of PDL-1 protein,PDL-1 protein [2],significantly decreased
same,expression of PDL-1 protein,PDL-1 protein [3],significantly decreased
same,expression of PDL-1 protein,PDL-1 protein [4],significantly decreased
same,expression of PDL-1 protein,PDL-1 protein [5],significantly decreased
Ipilimumab,overall survival rate increased,[6],10.1 months
